From article PMC3179854 (Journal of the American Chemical Society, 2011)
Where two headings read alike, the source gives them in different places.

How the values were obtained:
[1] = test system: pooled human liver microsomes; type: in vitro ADME; details: substrates dextromethorphan (CYP2D6), diclofenac (CYP2C9), phenacetin (CYP1A2), testosterone (CYP3A4)
[2] = target: T1, CYP3A4 (Homo sapiens, UniProt P08684); details: read-out: IC50, literature value; cited from earlier work
[3] = target: T1, CYP3A4; experiment: Inhibition of CYP3A4-catalyzed testosterone metabolism in Baculosomes
[4] = target: T2, CYP1A2 (Homo sapiens, UniProt P05177); details: CYP1A2, substrate conc. 500 μM
T2 sequence (P05177 1-516): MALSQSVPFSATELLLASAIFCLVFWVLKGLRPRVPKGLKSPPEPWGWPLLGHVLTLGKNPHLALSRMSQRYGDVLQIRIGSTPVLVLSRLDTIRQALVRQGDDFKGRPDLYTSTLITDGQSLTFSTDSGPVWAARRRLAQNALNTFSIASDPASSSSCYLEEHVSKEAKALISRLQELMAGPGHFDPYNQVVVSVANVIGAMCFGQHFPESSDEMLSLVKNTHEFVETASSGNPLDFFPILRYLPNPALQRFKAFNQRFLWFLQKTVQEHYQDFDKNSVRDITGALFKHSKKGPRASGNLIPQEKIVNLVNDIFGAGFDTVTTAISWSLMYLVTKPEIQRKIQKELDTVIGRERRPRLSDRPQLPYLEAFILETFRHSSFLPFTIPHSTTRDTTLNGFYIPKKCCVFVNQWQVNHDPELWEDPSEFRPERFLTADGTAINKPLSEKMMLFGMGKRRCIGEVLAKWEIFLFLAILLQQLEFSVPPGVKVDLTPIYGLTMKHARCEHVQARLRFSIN

[5] = target: T2, CYP1A2; details: CYP1A2, substrate conc. 500 μM; remark: listed apart in the source
[6] = target: T3, CYP2D6 (Homo sapiens, UniProt P10635); experiment: MesaPlate metabolic stability; type: in vitro ADME
T3 sequence (P10635 whole entry): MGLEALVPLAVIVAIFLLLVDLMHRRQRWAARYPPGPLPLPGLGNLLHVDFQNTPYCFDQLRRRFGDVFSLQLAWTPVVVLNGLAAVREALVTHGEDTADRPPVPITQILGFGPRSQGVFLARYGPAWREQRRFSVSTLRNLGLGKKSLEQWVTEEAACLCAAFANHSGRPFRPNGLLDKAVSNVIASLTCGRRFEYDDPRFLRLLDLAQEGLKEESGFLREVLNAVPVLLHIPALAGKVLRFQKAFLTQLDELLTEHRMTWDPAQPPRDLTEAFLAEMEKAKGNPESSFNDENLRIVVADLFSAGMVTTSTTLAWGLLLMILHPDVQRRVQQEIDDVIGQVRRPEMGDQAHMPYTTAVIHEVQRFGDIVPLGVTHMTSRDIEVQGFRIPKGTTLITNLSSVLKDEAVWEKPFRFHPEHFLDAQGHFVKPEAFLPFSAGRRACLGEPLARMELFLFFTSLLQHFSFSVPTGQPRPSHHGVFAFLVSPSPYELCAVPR

[7] = target: T3, CYP2D6; experiment: Metabolic stability measured with chromatography; type: in vitro ADME
[8] = target: T4, CYP2C9 (Homo sapiens, UniProt P11712)
T4 sequence (P11712 whole entry): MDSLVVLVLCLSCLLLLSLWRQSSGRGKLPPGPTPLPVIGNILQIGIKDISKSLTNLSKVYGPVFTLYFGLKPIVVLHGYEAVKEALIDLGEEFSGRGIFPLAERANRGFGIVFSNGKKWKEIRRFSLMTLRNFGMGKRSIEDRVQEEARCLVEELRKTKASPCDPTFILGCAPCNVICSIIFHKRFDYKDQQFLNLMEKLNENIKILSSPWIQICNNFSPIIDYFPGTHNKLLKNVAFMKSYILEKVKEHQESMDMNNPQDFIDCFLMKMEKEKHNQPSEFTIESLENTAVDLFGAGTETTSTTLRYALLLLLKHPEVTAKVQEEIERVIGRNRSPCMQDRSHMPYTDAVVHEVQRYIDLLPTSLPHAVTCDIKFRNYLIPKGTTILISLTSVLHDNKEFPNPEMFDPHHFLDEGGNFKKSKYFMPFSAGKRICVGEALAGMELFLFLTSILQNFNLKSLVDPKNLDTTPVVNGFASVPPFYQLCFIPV

[9] = target: T4, CYP2C9; experiment: in vitro
[10] = target: T4, CYP2C9; details: cited from earlier work
[11] = target: T1, CYP3A4; experiment: MesaPlate metabolic stability

T1 sequence (P08684 whole entry): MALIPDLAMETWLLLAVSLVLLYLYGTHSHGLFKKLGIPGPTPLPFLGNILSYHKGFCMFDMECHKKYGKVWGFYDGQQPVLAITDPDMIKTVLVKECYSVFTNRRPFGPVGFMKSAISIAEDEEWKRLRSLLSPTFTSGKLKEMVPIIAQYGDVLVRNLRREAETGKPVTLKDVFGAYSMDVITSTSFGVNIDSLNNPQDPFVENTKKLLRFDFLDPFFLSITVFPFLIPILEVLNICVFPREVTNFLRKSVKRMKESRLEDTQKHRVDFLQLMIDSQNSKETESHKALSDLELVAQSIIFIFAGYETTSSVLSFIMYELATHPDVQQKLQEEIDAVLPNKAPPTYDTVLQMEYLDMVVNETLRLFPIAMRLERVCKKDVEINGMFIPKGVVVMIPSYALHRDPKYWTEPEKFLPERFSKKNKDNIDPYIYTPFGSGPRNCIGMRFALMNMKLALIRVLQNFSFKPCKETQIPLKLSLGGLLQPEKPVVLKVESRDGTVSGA

c1ccc(-n2ccnc2)cc1 [1-phenylimidazole]
measured rate of P450 oxidation in the presence of inhibitor [1]: much lower | IC50 [2]: 2.7 µM | IC50 [3]: 2.39 ± 0.01 µM

Cc1c[nH]c2ccccc12 [3-methylindole]
−rRH (metabolic stability), MesaPlate [4]: 15.8 ± 1.8 nmol/min/nmol P450 | −rRH (metabolic stability), Chromatography [5]: 10.7 ± 0.8 nmol/min/nmol P450

CN(C)CCC=C1c2ccccc2CCc2ccccc21 [Amitriptyline]
−rRH (metabolic stability), MesaPlate ([6]; CYP2D6, substrate conc. 60 μM): 6.7 ± 0.8 nmol/min/nmol P450 | −rRH (metabolic stability), Chromatography ([7]; CYP2D6, substrate conc. 60 μM): 3.8 ± 0.4 nmol/min/nmol P450

O=C(O)Cc1ccccc1Nc1c(Cl)cccc1Cl [Diclofenac]
kcat (MesaPlate) [8]: 0.183 ± 0.017 s⁻¹ | Km [9]: 20 ± 7 µM | Km [10]: 5 µM | kcat (Literature) [10]: 0.483 s⁻¹

COCCc1ccc(OCC(O)CNC(C)C)cc1 (stereo not drawn) [Metoprolol]
−rRH (metabolic stability), MesaPlate ([6]; CYP2D6, substrate conc. 100 μM): 12.2 ± 2.2 nmol/min/nmol P450 | −rRH (metabolic stability), Chromatography ([7]; CYP2D6, substrate conc. 100 μM): 9.8 ± 2.3 nmol/min/nmol P450

C[C@]12CC[C@H]3[C@@H](CCC4=CC(=O)CC[C@@]43C)[C@@H]1CC[C@@H]2O [Testosterone]
kcat (MesaPlate) ([11]; CYP3A4, Michaelis-Menten fit): 1.97 ± 0.13 s⁻¹ | Km ([11]; human, Baculosomes with CYP3A4): 31 ± 7 µM
